# EPA's ToxValDB 9.5
# “And” between values parts separate entries of the source, which are not always exact repeats. Identical values can stand only once. Counter-ions that a name gives are not always drawn.
# Tested on: Rattus norvegicus
# Conditions: for LD50: acute
# [1] = subchronic, duration: 90 days, oral, diet
# [2] = subchronic, duration: 90 days, oral, diet, M/F, Sprague-Dawley, histopathology: nonneoplastic
# [3] = subchronic, duration: 90 days, oral, diet, M/F, Sprague-Dawley, no effects
# [4] = subchronic, duration: 90 days, oral, diet, M/F, no effects
# [5] = subchronic, duration: 13 weeks, oral, diet, M/F, Wistar, hematological
# [6] = subchronic, duration: 90 days, oral, diet, M/F, Wistar, hematological
# [7] = chronic, duration: 2 years, oral, diet
# [8] = subchronic, duration: 90 days, oral, gavage, M/F, hematological
# [9] = subchronic, duration: 13 weeks, oral, gavage, no effects
compound,measurement,setting,value
Cc1ncc(C[n+]2csc(CCO)c2C)c(N)n1.Cl.[Cl-] [Thiamine hydrochloride],NOAEL,[1],36 mg/kg-day
Cn1cc(C(F)(F)F)cc(Cl)c1=O [3-Chloro-1-methyl-5-(trifluoromethyl)pyridin-2-one],LD50,"oral, F, Wistar, mortality",124 mg/kg
CCCCC(CC)COC(=O)c1ccccc1C(=O)OCC(CC)CCCC (stereo not given) [Di(2-ethylhexyl) phthalate],NOAEL,"developmental, Sprague-Dawley, development",5 mg/kg-day
C[C@@H]1O[C@@H](O[C@H]2[C@H](O[C@@H]([C@H](O)[C@@H](O)C=O)[C@H](O)CO)O[C@H](CO)[C@H](O)[C@@H]2O)[C@@H](O)[C@H](O)[C@@H]1O [2'-Fucosyllactose],NOAEL,"subchronic, duration: 90 days, oral, gavage, M/F, Wistar, organ weight",2000 mg/kg-day
CC(C)[C@@H]1CC[C@@H](C)C[C@H]1C(=O)NCCc1ccccn1 (relative stereo),NOAEL,[2],5 mg/kg-day
OC1OC[C@@H](O)[C@@H](O)[C@H]1O (stereo partly drawn) [D-Ribose],NOAEL,"subchronic, duration: 90 days, oral, diet, M/F, Wistar, body weight",3600 mg/kg-day
C=CC(C)=CCC=C(C)C [beta-Ocimene],NOAEL,[3],44 mg/kg-day
Cc1ccc(C(C)CC=O)o1 (stereo not given) [3-(5-Methyl-2-furyl)butanal],NOAEL,"subchronic, duration: 90 days, oral, diet, M/F, Crj:CD, clinical signs",5.9 mg/kg-day
C1CCNCC1 [Piperidine],NOAEL,"subchronic, duration: 90 days, oral, M/F, Sprague-Dawley, clinical chemistry",5 mg/kg-day
CCOC(=O)CCCSC(C)=O [Ethyl 4-(acetylthio)butyrate],NOEL,"subchronic, duration: 13 weeks, oral, diet",6.5 mg/kg-day
same,NOAEL,"subchronic, duration: 90 days, oral",6.63 mg/kg-day
same,NOAEL,[4],6.63 mg/kg-day
O=Cc1ccco1 [Furfural],NOEL,"subchronic, duration: 90 days, oral, diet, M/F, Fischer 344, hematological",54 mg/kg-day
C#CCN1C(=O)COc2cc(F)c(N3C(=O)C4=C(CCCC4)C3=O)cc21 [Flumioxazin],NOAEL,"chronic, duration: 2 years, hematological",1.8 mg/kg-day
same,NOAEL,"developmental, development",3 mg/kg-day
same,NOAEL,"subchronic, duration: 90 days, oral, hematological",2.2 mg/kg-day
[O]=[Ti]=[O] [Titanium dioxide],NOAEL,"chronic, duration: 103 weeks, oral, diet, M/F, Fischer 344, no effects",2250 mg/kg-day
"CCCC(CCC)NC(=O)c1ccc2c(c1)OCO2 [N-(1-Propylbutyl)-1,3-benzodioxole-5-carboxamide]",NOEL,"chronic, duration: 93 days",20 mg/kg-day
C=C(C)[C@@H]1CC=C(C)CC1 [(S)-Limonene],NOAEL,"chronic, duration: 103 weeks, oral, gavage, F, mortality",215 mg/kg-day
CCCCC/C=C/C/C=C/CCCCCCCC(=O)O[C@H](COC(=O)CCCCCCCCCCCCCCC)COP(=O)([O-])OCC[N+](C)(C)C [Lecithin],NOAEL,"chronic, duration: 24 weeks, oral, gavage, Wistar, no effects",3750 mg/kg-day
"CC(C)=CCC/C(C)=C/CNC(=O)C1CC1 [N-3,7-Dimethyl-2,6-octadienyl cyclopropylcarboxamide, (2E)-]",NOAEL,[4],73.3 mg/kg-day
CC(=O)c1ccc2ccccc2c1 [2'-Acetonaphthone],NOAEL,"subchronic, duration: 90 days",33 mg/kg-day
same,NOAEL,[4],33 mg/kg-day
"CCC(S)S [1,?1-?Propanedithiol]",NOAEL,[3],0.705 mg/kg-day (2×) and 0.703 mg/kg-day (2×)
CCCCCCCCCCCCCCCCCC(=O)OC(C)C(=O)OC(C)C(=O)[O-].[Na+] (stereo not given) [Sodium stearoyl lactylate],NOAEL,"chronic, duration: 1 years, M/F, Wistar, no effects",2200 mg/kg-day
"CC(=O)SC1=C(C)OCC1 [2-Methyl-3-thioacetoxy-4,5-dihydrofuran]",NOAEL,[5],1.4 mg/kg-day
same,NOEL,[6],1.4 mg/kg-day
CCCCCCCCCC(C)=O [2-Undecanone],NOAEL,"subchronic, duration: 90 days, oral, clinical signs",50 mg/kg-day
CC(C=O)=Cc1ccccc1 [2-Methylcinnamic aldehyde],NOAEL,[4],220 mg/kg-day
"CCC1=C(O)C(=O)C(C)O1 (stereo not given) [3(2H)-Furanone, 5-ethyl-4-hydroxy-2-methyl-]",NOAEL,"chronic, duration: 2 years, M/F, body weight",200 mg/kg-day
CNC(=O)C(C)(C(C)C)C(C)C [Trimethyl isopropyl butanamide],NOEL,"chronic, duration: 14 weeks, oral, diet, M/F, histopathology: nonneoplastic",5 mg/kg-day
O=S([O-])S(=O)(=O)[O-].[Na+].[Na+] [Sodium metabisulfite],NOAEL,"chronic, duration: 2 years, oral, diet, M/F, histopathology: nonneoplastic",72 mg/kg-day
CC(C)CCCCCCOC(=O)c1ccccc1C(=O)OCCCCCCC(C)C [Diisononyl phthalate],NOAEL,"chronic, duration: 2 years, M/F, Fischer 344, histopathology: nonneoplastic",15 mg/kg-day
"CC1CCCCC1NC(=O)c1c(F)c(F)c(F)c(F)c1F (stereo not given) [2,3,4,5,6-Pentafluoro-N-(2-methylcyclohexyl)benzamide]",NOAEL,"subchronic, duration: 90 days, oral, diet, M/F, Wistar, clinical signs",55 mg/kg-day
COc1ccc(CCC(=O)c2c(O)cc(O[C@@H]3O[C@H](CO)[C@@H](O)[C@H](O)[C@H]3O[C@@H]3O[C@@H](C)[C@H](O)[C@@H](O)[C@H]3O)cc2O)cc1O [Neohesperidin dihydrochalcone],NOAEL,"repeat dose other, no effects",500 mg/kg-day
"CCCCCCCCCCCC[N+](C)(C)[O-] [N,N-Dimethyldodecylamine-N-oxide]",NOAEL,[7],50 mg/kg-day
O=C1O[C@H]([C@H](O)CO)C(O)=C1O [Isoascorbic acid],NOAEL,"chronic, duration: 2 years, oral, drinking water, M/F, Fischer 344, body weight",650 mg/kg-day
CC(=O)c1ccc(C)[nH]1 [1-(5-Methyl-1H-pyrrol-2-yl)ethan-1-one],NOAEL,"subchronic, duration: 90 days, oral, gavage, M, hematological",48 mg/kg-day
CCOC(=O)CNC(=O)[C@@H]1C[C@H](C)CC[C@H]1C(C)C,NOAEL,[8],75 mg/kg-day
OC[C@H]1O[C@H](OC[C@H]2O[C@@H](O)[C@@H](O)[C@@H](O)[C@@H]2O[C@@H]2O[C@H](CO)[C@@H](O)[C@H](O)[C@@H]2O)[C@H](O)[C@@H](O)[C@H]1O [Galactomannan],NOEL,"short-term, duration: 28 days, M/F, Sprague-Dawley, clinical chemistry",230 mg/kg-day
C=C1CCC2(C(C)C)CC12 (stereo not given) [Sabinen],NOAEL,"subchronic, duration: 90 days, oral, diet, M/F, Sprague-Dawley, hematological",222 mg/kg-day
"CC1=C(S)CCO1 [2-methyl-4,5-dihydrofuran-3-thiol]",NOAEL,[5],1.4 mg/kg-day
same,NOEL,[6],1.4 mg/kg-day
SCc1ccco1 [2-Furylmethanethiol],NOAEL,"subchronic, duration: 90 days, oral, gavage, M/F, body weight",3 mg/kg-day
CC=O [Acetaldehyde],NOAEL,"subchronic, duration: 11 weeks, oral, drinking water, other",120 mg/kg-day
CC1=C(/C=C/C(C)=C/C=C/C(C)=C/C=C/C=C(C)/C=C/C=C(\C)C=O)C(C)(C)CCC1 [Apocarotenal],NOAEL,"subchronic, duration: 13 weeks, histopathology: nonneoplastic",30 mg/kg-day
same,LOAEL,"subchronic, duration: 13 weeks, oral, M/F, Sprague-Dawley, histopathology: nonneoplastic",10 mg/kg-day
C=C1CC[C@H]2O[C@]2(C)CC[C@@H]2[C@@H]1CC2(C)C [(-)Carophyllene oxide],NOAEL,[2],109 mg/kg-day
CC(C)(C)C1CCC(O)CC1 (stereo not given) [4-tert-Butylcyclohexanol],NOAEL,"reproduction developmental, clinical signs",31.5 mg/kg-day
same,NOAEL,"short-term, duration: 28 days, clinical signs",30 mg/kg-day
NS(=O)(=O)c1ccccc1C(F)(F)F [2-(Trifluoromethyl)benzenesulfonamide],NOAEL,"short-term, duration: 28 days, organ weight",15 mg/kg-day
CCCCOC(=O)CC(CC(=O)OCCCC)(OC(C)=O)C(=O)OCCCC [Acetyl tributyl citrate],NOAEL,"subchronic, duration: 90 days, oral, body weight",100 mg/kg-day
C=CCc1ccc(OC(C)=O)c(OC)c1 [(2-Methoxy-4-prop-2-enylphenyl) acetate],NOAEL,"subchronic, duration: 90 days, clinical chemistry",300 mg/kg-day
O=Cc1cc2ccccc2o1 [2-Benzofurancarboxaldehyde],NOEL,[1],25 mg/kg-day
"O=c1[nH]sc2ccccc12 [1,2-Benzisothiazolin-3-one]",NOAEL,"subchronic, duration: 90 days, oral, gavage, M/F, Wistar, histopathology: nonneoplastic",10 mg/kg-day
Cc1ccc(C(C)C)cc1 [p-Cymene],NOAEL,"chronic, duration: 6 months, oral, gavage, F, organ weight",154 mg/kg-day
CCCCCC/C=C/C(C)=O [3-Decen-2-one],LD50,"oral, mortality",> 5000 mg/kg-day
same,NOAEL,"developmental, development",≥ 1000 mg/kg-day
O=C1CN(/N=C/c2ccc([N+](=O)[O-])o2)C(=O)N1 [Nitrofurantoin],LEL,"reproduction developmental, oral, reproduction",10 mg/kg-day
O=C1C(c2[nH]c3ccc(S(=O)(=O)[O-])cc3c2O)=Nc2ccc(S(=O)(=O)[O-])cc21.[Na+].[Na+] [C.I. Acid Blue 74],NOAEL,[7],500 mg/kg-day
same,NOAEL,"chronic, duration: 2 years, oral, diet, growth",500 mg/kg-day
CC(=O)N[C@@H]([C@@H](O)[C@H](O)[C@H](O)CO)[C@@H](O)CC(=O)C(=O)O [Aceneuramic acid],NOAEL,"subchronic, duration: 13 weeks, oral, diet, M/F, Crj:CD, food consumption",493 mg/kg-day
CC(=O)Nc1ccc(S(=O)(=O)[O-])c2cc(S(=O)(=O)[O-])c(N=Nc3ccc(N=Nc4ccc(S(=O)(=O)[O-])cc4)c4ccc(S(=O)(=O)[O-])cc34)c(O)c12.[Na+].[Na+].[Na+].[Na+] [Black PN],NOAEL,"chronic, duration: 2 years, oral, diet, M/F, no effects",500 mg/kg-day
CCCCCC1C(=O)CCC1CC(=O)OC (stereo not given) [Methyl dihydrojasmonate],NOAEL,[3],100 mg/kg-day
"Cc1sc2nc(=O)[nH]c(N)c2c1C [4-Amino-5,6-dimethylthieno(2,3-d)pyrimidin-2(1H)-one]",NOAEL,"subchronic, duration: 13 weeks, oral, diet, M/F, Sprague-Dawley, no effects",60 mg/kg-day
CC(C)=CCC/C(C)=C/C=C/C(C)=C/C=C/C(C)=C/C=C/C=C(C)/C=C/C=C(C)/C=C/C=C(\C)CCC=C(C)C [all-trans-Lycopene],NOAEL,"chronic, duration: 1 years, clinical chemistry",50 mg/kg-day
COc1cc(C=O)ccc1O [4-Hydroxy-3-methoxybenzaldehyde],NOAEL,"chronic, duration: 2 years",1000 mg/kg-day
same,NOAEL,[9],400 mg/kg-day
CCCCCC(C)=O [2-Heptanone],NOAEL,"subchronic, duration: 13 weeks, oral, gavage, M/F, organ weight",20 mg/kg-day
COc1ccc(C=O)cc1OC [Veratraldehyde],NOAEL,[9],400 mg/kg-day
O=C(/C=C/c1ccc(O)c(O)c1)O[C@H](Cc1ccc(O)c(O)c1)C(=O)O [Rosmarinic acid],NOAEL,"subchronic, duration: 90 days, oral, gavage, M/F, Sprague-Dawley, no effects",300 mg/kg-day
Cc1ccc2oc(=O)ccc2c1 [6-Methyl coumarin],NOEL,"subchronic, duration: 13 weeks",150 mg/kg-day
CC(=NC#N)N(C)Cc1ccc(Cl)nc1 [Acetamiprid],NOAEL,"reproduction developmental, duration: 16 days, oral, gavage, F, other",2.5 mg/kg-day
"CC(C)CC1NC(CC(C)C)SC(CC(C)C)S1 (stereo not given) [2,4,6-Triisobutyl-5,6-dihydro-4H-1,3,5-dithiazine]",NOAEL,"subchronic, duration: 90 days, oral, diet, M, histopathology: nonneoplastic",9.3 mg/kg-day
CC(=O)c1ccccn1 [1-(2-Pyridyl)-1-ethanone],NOAEL,[8],37 mg/kg-day
